In ChEMBL document CHEMBL1125580, “Synthesis and in vivo photodynamic activity of some bacteriochlorin derivatives against bladder tumors in rodents” (1991) one finds ED50 data, which are given here for 3 compounds.

The test deals with Rattus norvegicus. The experiment in a line: Compound was evaluated in vivo for the effective dose of irradiation that causes antitumor activity. The format is functional. Particulars: light or radiation study.
For `CCC1=C(CC)c2cc3[nH]c(cc4[nH]c(cc5nc(cc1n2)C(=O)C5(CC)CC)c(CC)c4CC)C1(CC)C3=CCC(C#N)(C#N)C1(C#N)C#N.CCC1=C(CC)c2cc3[nH]c(cc4[nH]c(cc5nc(cc1n2)C1=CCC(C#N)(C#N)C(C#N)(C#N)C15CC)c(CC)c4CC)C(=O)C3(CC)CC` (mixture of isomers), the 50% effect level (ED50) was put at a dose of 2.5 mg/kg.

For the compound `C=CC1=C(CC)/C2=C/c3[nH]c(c(CC)c3CC)/C=C3N=C(/C=c4\[nH]/c(c(CC)c4CC)=C\C1N2)C(CC)(CC)C\3=O.C=CC1=C(CC)C2/C=c3\[nH]/c(c(CC)c3CC)=C\C3=NC(=C\c4[nH]c(c(CC)c4CC)/C=C/1N2)/C(=O)C3(CC)CC` (mixture of isomers), the 50% effect level (ED50) was put at a dose of 2.5 mg/kg.

Compound `CCC1=C(CC)c2cc3[nH]c(cc4[nH]c(cc5nc(cc1n2)C(=O)C5(CC)CC)c(CC)c4CC)C1(CC)C3=CCC(C(=O)OC)=C1C(=O)OC.CCC1=C(CC)c2cc3[nH]c(cc4[nH]c(cc5nc(cc1n2)C1=CCC(C(=O)OC)=C(C(=O)OC)C15CC)c(CC)c4CC)C(=O)C3(CC)CC` (stereo not drawn) returned an ED50 of 1 mg/kg.
